Laboratory results from patent US9889135B2, “Companion diagnostic for CDK4 inhibitors” (Memorial Sloan-Kettering Cancer Center, priority 2013, dated 2018).

How the values were obtained:
[1] = test system: MDM2 transcripts in WD/DDLS cell lines; experiment: MDM2 transcript levels by qPCR; assay type: cell-based, human; conditions: two days; each cell line
[2] = test system: normal and tumor cells; conditions: both normal and tumor cells; cited from earlier work
[3] = test system: seven RB-positive patient derived WD/DDLS cell lines; experiment: cell cycle distribution, propidium iodine and flow cytometry; assay type: cell-based, human; conditions: two days of treatment
Protocol: Percentages annotated on graphs represent the mean of three or more independent experiments. Cells were stained with BrdU (20 μM for two hours) or annexin V as previously described (22, 48). […] was determined by staining with propidium iodine and FACS analyses (49).

[4] = test system: SNB19 glioma cells; experiment: senescence-associated β-galactosidase staining; assay type: cell-based
Protocol: (§1) Cells were plated at a concentration of 25,000 per well in a 4-well chamber slides (Lab-Tek) and treated for seven days with drug or shRNA as described above and stained for senescence-associated β-galactosidase (Cell Signaling kit #9860). Cell number was quantitated by DAPI staining and β-galactosidase staining quantitated as a proportion of total cells. Senescence associated heterochromatic foci were quantitated after cells were fixed with 4% paraformaldehyde, permeabilized with 0.1% Triton, blocked with 2% FBS, and stained with antibodies against HP1γ (1:5000 dilution, 2MOD-1G6 Millipore). Senescent cells were identified by immunofluorescence after treatment of slides with anti-mouse secondary antibodies and quantitation of focal SAHF as a percent of total cells (Leica Upright Confocal SP5 confocal microscope). Actin was marked using phalloidin staining (1:500, Invitrogen) and cells were counterstained with DAPI. Cell area was measured by with Metamorph software to calculate relative area per cell.

[5] = test system: DKMG glioma cells; experiment: senescence-associated β-galactosidase staining; assay type: cell-based
Protocol: as §1

[6] = test system: DBTRG-05MG glioma cells; experiment: senescence-associated β-galactosidase staining; assay type: cell-based
Protocol: as §1

[7] = test system: T98G glioma cells; experiment: senescence-associated β-galactosidase staining; assay type: cell-based; conditions: after treatment
Protocol: as §1

[8] = test system: MCF7 breast cancer cells; experiment: senescence-associated β-galactosidase staining; assay type: cell-based
Protocol: as §1

[9] = test system: Glioma (U87MG, U251, SNB19, DBTRG-05MG) and breast cancer (MDA453, T47D, ZR-75-1, and MCF7) cells; experiment: SA-β-gal senescence in glioma and breast cancer cell lines; assay type: cell-based; conditions: eight cell lines, some p53 and/or INK4 mutant
Source text: FIG. 19A-C. Senescence associated with the downregulation of MDM2 is p53 and INK4 independent. […] This experiment was repeated three times with similar results in both LS8817 and LS141. […] The p53 mutational status of these cell lines (WT, wild type; R273H and L194F, missense mutations; if-DEL, in-frame deletion of 30 nucleotides at amino acid 368) were obtained from the p53 mutation database and the RIKEN bioresource databank and is consistent with the detection of p21 by immunoblot. (C) SNB19 cells, a p53 mutant and INK4A deficient cell, was transduced with the mutants described in panel A and their effect on senescence determined.
Cells were plated at a concentration of 25,000 per well in a 4-well chamber slides (Lab-Tek) and treated for seven days with drug and stained for senescence-associated β-galactosidase (Cell Signaling kit #9860). Cell number was quantitated by DAPI staining and β-galactosidase staining quantitated as a proportion of total cells.

[10] = test system: WD/DDLS; conditions: cited from earlier work

CC(=O)c1c(C)c2cnc(Nc3ccc(N4CCNCC4)cn3)nc2n(C2CCCC2)c1=O [PD0332991]
MDM2 transcripts [1]: modestly reduced | cell cycle arrest [2]: G1 arrest | cell cycle distribution [3]: accumulating in G0/G1 | PD-induced SA-β-gal ([4]; 7 days of treatment): Y (Y, yes: the number of SA-β-gal cells increases at least 10X after 7 days of treatment) | number of SA-β-gal cells ([4]; seven days after exposure): significant increase | PD-induced SA-β-gal ([5]; 7 days of treatment): Y (Y, yes: the number of SA-β-gal cells increases at least 10X after 7 days of treatment) | number of SA-β-gal cells ([5]; seven days after exposure): significant increase | PD-induced SA-β-gal ([6]; 7 days of treatment): Y (Y, yes: the number of SA-β-gal cells increases at least 10X after 7 days of treatment) | number of SA-β-gal cells ([6]; seven days after exposure): significant increase | increase in the number of SA-β-gal cells [7]: not observed | PD-induced SA-β-gal ([8]; 7 days of treatment): Y (Y, yes: the number of SA-β-gal cells increases at least 10X after 7 days of treatment) | number of SA-β-gal cells ([8]; seven days after exposure): significant increase | senescence as measured by accumulation of SA-β-gal [9]: All of the cell lines underwent senescence | patients with prolonged stable disease ([10]; 30 WD/DDLS patients): 66% | time at which one patient achieved a RECIST partial response ([10]; one patient): 74 weeks | myelosuppression ([10]; patients): common | tolerability ([10]; patients): generally well-tolerated | decrease in tumor size ([10]; three other patients, favorable response that did not meet RECIST): at least 10%
